This note sets out measurements from paper PMC4660270 (Structure (London, England : 1993), 2015).

The target in this assay is TEAD4 (Homo sapiens, UniProt Q15561). The assay is described as follows: ITC. Format: binding.
TEAD4, sequence (Q15561 217-434): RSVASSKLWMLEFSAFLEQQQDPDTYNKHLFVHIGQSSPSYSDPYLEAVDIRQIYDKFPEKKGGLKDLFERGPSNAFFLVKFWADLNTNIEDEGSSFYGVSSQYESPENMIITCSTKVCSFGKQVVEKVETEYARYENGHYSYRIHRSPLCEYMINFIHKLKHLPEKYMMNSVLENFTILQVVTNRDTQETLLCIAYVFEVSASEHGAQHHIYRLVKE

As usually defined, the Kd is the free concentration of one partner at which half of the binding sites on the other are occupied at equilibrium, for simple one-to-one binding. A high value points to lower affinity. For the molecule `O=C(O)c1ccccc1Nc1cccc(C(F)(F)F)c1` [FA, flufenamic acid], the equilibrium dissociation constant (Kd) is ~73 µM.
